Consider five molecules from patent publication US20220151995A1, “PHARMACEUTICAL COMPOSITION FOR TREATING CANCER AND SUPPRESSING METASTASIS, CONTAINING SULFONAMIDE-BASED COMPOUND AS ACTIVE INGREDIENT” (EXOSTEMTECH CO., LTD, priority 2015, published 2022).

Each structure is given as a SMILES string.

For data set [1], the system named is MDA-MB231-CD63-GFP(+) cells. The experiment in a line: Exosome (CD63-GFP) secretion screening of FDA-approved drugs, supernatant fluorescence. It counts as cell-based. As to conditions: 24 h, fluorescence 485/538 nm, % of control group, read-out: exosome inhibition rate (relative fluorescence, of control group). As for the experimental part: Among a total of 1,163 FDA-approved drug libraries, drugs effective in inhibiting exosome secretion of the MDA-MB231 triple negative breast cancer cell line were selected by carrying out screening twice. Sulfisoxazole, Sulfadiazine, Sulfathiazole and Ambrisentan, all of which are ETA receptor antagonists, were selected.
The percentage of inhibition rate of exosome secretion was evaluated for each of the selected ETA receptor antagonists. Briefly, MDA-MB231-CD63-GFP(+) cells were incubated with 30 pM of 1,163 individual FDA-approved drugs for 24 h. The fluorescence of each supernatant was measured at 485 nm (excitation) and 538 nm (emission) using a fluorescence microplate reader. Y-axis indicates the inhibition rate of exosome (CD63-GFP), and X-axis indicates the number of FDA-approved drugs.

The subject of data set [2] is MDA-MB231 cells. The experiment in a line: Cancer cell proliferation, MTT assay. As to conditions: 25, 50, 100 and 200 μM; MTT absorbance at 495 nm; compared with the control. In kind it is cell-based. As for the experimental part:
After the 12-hour incubation, the cells were treated with sulfisoxazole and sulfadoxine at 25, 50, 100, and 200µM, and then re-treated with the same drugs […]. Thereafter, the cells were treated with MT tetrazolium reagent for each time, and then incubated for […]. After 4 hours, the cell proliferation effect was investigated by measuring the absorbance at 495 nm of reduced MTT formazan (3-(4,5-dimethylthiazol-2-yl)-2,5-diphenyl-tetrazolium bromide). The docetaxel (10µM), which is an anticancer drug currently in use, was used as a control.
(In general: Tetrazolium assays rely on reduction of a dye to a coloured formazan, in cell work by metabolically active cells.)

The test system of data set [3] is MDA-MB231 cells. Put plainly: Matrigel invasion assay. It counts as cell-based. As to conditions: 25, 50, 100 and 200 μM, 48 hours, compared with the controls. As for the experimental part:
A 8[…] insert was placed in a 24-well plate, coated with serum-free medium and Matrigel, and then solidified at 37 for 4 hours. Then, 800µ1 of 10% FBS was added to the lower chamber and 1×10^4 MDA-MB231 cells were added to the upper chamber, followed by treatment with sulfisoxazole or sulfadoxine at 25, 50, 100, and 200µM. After 48 hours, the Matrigel in the insert was removed, followed by washing with PBS, and then the lower chamber was fixed with 60% ethanol, and then stained with crystal violet.

Data set [4] concerns MDA-MB231 cells. Put plainly: Cancer cell migration, scratch assay (T-scratch). In kind it is cell-based. As to conditions: 24 hours, medium containing 2% serum; T-scratch quantification. As for the experimental part:
MDA-MB231 cells were seeded in a 24-well plate at 2×10^5 cells/well, and then incubated for 24 hours for the proliferation to a monolayer. After the incubation for 24 hours, the monolayer was straightly scratched with a yellow tip. The cells were washed with PBS to remove floating cells, and then photographed (0 h). Thereafter, a drug was added to a medium containing 2% serum, and then the cells were treated with the medium, and then incubated for 24 hours (24 h). After 24 hours, the cells were photographed for the same site to compare cell migration. The measurement of cell migration was carried out using T-scratch program.

A further data set has as its system A549. Put plainly: Cancer exosome secretion, number of exosomes by Nanosight. In kind it is cell-based. As to conditions: SFX 100 μM and 200 μM, one day; compared to control (DMSO). The protocol:
After seeding 2×10^6 cells of A549 in T-flask, they were stabilized with growth medium for 24 hours. To isolate cancer exosomes, T-flask was treated with SFX at different concentrations (0, 100, 200 μM), and then lung cancer cells were cultured for one day. After the cell culture medium was collected and filtered, exosomes were separated through ultracentrifugation, and the number of exosomes was determined with Nanosight (FIG. 11).

In another data set the test system is A549 cells. The experiment in a line: Cancer cell proliferation, WST-1 assay. It counts as cell-based. As to conditions: 100 μM and 200 μM daily, 72 hours; compared to control (DMSO). As for the experimental part: A549 cells were seeded in a 12-well plate at a concentration of 3×10^4 cells/well and then stabilized with growth medium for 24 hours. To evaluate cancer cell growth inhibition, SFX was treated daily at different concentrations (0, 100, 200 μM). After 72 hours, cell growth rate was determined by WST-1 assay (FIG. 13).

A further data set relates to LLC1 tumor cells. As for the experimental part: The cancer animal models were prepared on the last day acclimatization. C57BL/6 mice used for the production of LLC1 tumor mouse model were used as experimental animals, and after inoculation of LLC1 tumor cells in the mouse thigh at a concentration of 5×10^5 cells/head, SFX was administered from the time when the tumor volume reached 50 mm^3.
After uniformly mixing the SFX solution prepared for each concentration by vortexing, a sonde for mice was connected to a 1 mL syringe to fill the solution, and 100 μL of the solution was orally administered to each mouse in each group.
Tumor volume was measured daily. The volume of the tumor was measured using a vernier caliper on the major axis and the minor axis, and the height was calculated as ½ the size of the minor axis.
[Tumor volume (mm3)=major axis (mm)×minor axis (mm)×½ of the minor axis]
Mouse body weight was measured every other day from the start of the test, and was measured after oral administration of the drug.

In the case of `COC(c1ccccc1)(c1ccccc1)[C@H](Oc1nc(C)cc(C)n1)C(=O)O` [ambrisentan, Ambrisentan], in data set [1], the activity at 30 pM amounted to 101%.
As to `Nc1ccc(S(=O)(=O)Nc2ncccn2)cc1` [sulfadiazine, Sulfadiazine], the activity at 30 pM in data set [1] came out at 89.9%.
As to `COc1ncnc(NS(=O)(=O)c2ccc(N)cc2)c1OC` [sulfadoxine], in the data set with MDA-MB231 cells [2], the “proliferation of MDA-MB231 cell lines” value is given as “significantly inhibited”. The “invasion of cancer cells” value in the data set with MDA-MB231 cells [3] is “significantly inhibited”. The “migration of cancer cells” value in the data set with MDA-MB231 cells [4] is listed as “inhibited dependent on the concentration”.
On to `Nc1ccc(S(=O)(=O)Nc2nccs2)cc1` [sulfathiazole, Sulfathiazole], for which, in data set [1], the activity at 30 pM was 93.8%.
With `Cc1noc(NS(=O)(=O)c2ccc(N)cc2)c1C` [sulfisoxazole], the “proliferation of MDA-MB231 cell lines” value in the data set on MDA-MB231 cells [2] is “inhibited dependent on the concentration”. The “invasion of cancer cells” value in the data set with MDA-MB231 cells [3] was “significantly inhibited”. Besides, the “migration of cancer cells” value in the data set on MDA-MB231 cells [4] was “inhibited dependent on the concentration”. In data set [1], the activity at 30 pM was determined as 60.8%. Besides, the “level of cancer exosome secretion” value in the data set with A549 is on record as “significantly reduced”. In addition, in the data set with A549 cells, the A549 cell growth entry is reported as “inhibited in a concentration-dependent manner”. For the same molecule, in the data set with LLC1 tumor cells (200 and 400 mg/kg orally, end of the experiment, compared to vehicle group), the tumor weight entry is reported as “tendency to decrease”. For the same molecule, the “mice that died (survival)” value in the data set with LLC1 tumor cells (oral SFX administration for each concentration) is given as “no mice that died”. Also, the “body weight of the animals” value in the data set on LLC1 tumor cells (oral SFX administration, measured every other day) is “did not show a significant change”.
